From ChEMBL document CHEMBL1201862, “PubChem BioAssay data set” (2004)
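Test compounds were applied to cells in 96-well plates for 48 hours at 5 doses. GI50: concentration for 50% inhibition of growth.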 Activity calls are given as the source filed them. No stated cut-off is given here; in the data, active = GI50 up to about 1.1 µM and inactive = higher.

Experiments:
Assay in all cases: inhibition of tumour cell growth, NCI panel, 48 h
EKVX = test system: EKVX
CCRF-CEM = test system: CCRF-CEM
RPMI-8226 = test system: RPMI-8226
UACC-257 = test system: UACC-257
OVCAR-4 = test system: OVCAR-4
OVCAR-5 = test system: OVCAR-5
A498 = test system: A498
IGROV-1 = test system: IGROV-1
ACHN = test system: ACHN
786-0 = test system: 786-0
NCI-H460 = test system: NCI-H460
HOP-18 = test system: HOP-18
RXF 393 = test system: RXF 393
SK-MEL-5 = test system: SK-MEL-5
M14 = test system: M14
Malme-3M = test system: Malme-3M
HCT-116 = test system: HCT-116
SNB-78 = test system: SNB-78
COLO 205 = test system: COLO 205
SR = test system: SR
UACC-62 = test system: UACC-62
SK-MEL-28 = test system: SK-MEL-28
SW-620 = test system: SW-620
SF-268 = test system: SF-268
HOP-92 = test system: HOP-92
M19-MEL = test system: M19-MEL
SN12C = test system: SN12C
HCC 2998 = test system: HCC 2998
DLD-1 = test system: DLD-1
TK-10 = test system: TK-10
HOP-62 = test system: HOP-62
UO-31 = test system: UO-31
MOLT-4 = test system: MOLT-4
SK-MEL-2 = test system: SK-MEL-2
LXFL 529 = test system: LXFL 529
KM-20L2 = test system: KM-20L2
NCI-H522 = test system: NCI-H522
HT-29 = test system: HT-29
SF-295 = test system: SF-295
A549 = test system: A549
SNB-19 = test system: SNB-19
U-251 = test system: U-251
OVCAR-8 = test system: OVCAR-8
HL-60 = test system: HL-60
K562 = test system: K562
DMS-114 = test system: DMS-114
HCT-15 = test system: HCT-15
NCI-H23 = test system: NCI-H23
OVCAR-3 = test system: OVCAR-3
KM12 = test system: KM12
SF-539 = test system: SF-539
LOX IMVI = test system: LOX IMVI
DMS-273 = test system: DMS-273
SNB-75 = test system: SNB-75
NCI-H226 = test system: NCI-H226
XF498 = test system: XF498
SK-OV-3 = test system: SK-OV-3
CAKI-1 = test system: CAKI-1

For `N/N=C1\C(=O)N(Cc2ccccc2)C(=O)C1C(=O)NCc1ccccc1` (configuration not stated), the GI50 (EKVX) was > 100 µM (inactive), the GI50 (CCRF-CEM) was > 100 µM (inactive) and the GI50 (RPMI-8226) was > 100 µM (inactive). The GI50 (UACC-257) was > 100 µM (inactive), the GI50 (OVCAR-4) was > 100 µM (inactive) and the GI50 (OVCAR-5) was > 100 µM (inactive). The GI50 (A498) was > 100 µM (inactive), the GI50 (IGROV-1) was > 100 µM (inactive) and the GI50 (ACHN) was > 100 µM (inactive). For the same compound, the GI50 (786-0) was > 100 µM (inactive), the GI50 (NCI-H460) was > 100 µM (inactive) and the GI50 (HOP-18) was > 100 µM (inactive). For the same compound, the GI50 (RXF 393) was > 100 µM (inactive), the GI50 (SK-MEL-5) was > 100 µM (inactive) and the GI50 (M14) was > 100 µM (inactive). The GI50 (Malme-3M) was > 100 µM (inactive), the GI50 (HCT-116) was > 100 µM (inactive) and the GI50 (SNB-78) was > 100 µM (inactive). For the same compound, the GI50 (COLO 205) was > 100 µM (inactive), the GI50 (SR) was > 100 µM (inactive) and the GI50 (UACC-62) was > 100 µM (inactive). For the same compound, the GI50 (SK-MEL-28) was > 100 µM (inactive), the GI50 (SW-620) was > 100 µM (inactive) and the GI50 (SF-268) was > 100 µM (inactive). The GI50 (HOP-92) was > 100 µM (inactive), the GI50 (M19-MEL) was > 100 µM (inactive) and the GI50 (SN12C) was > 100 µM (inactive). The GI50 (HCC 2998) was > 100 µM (inactive), the GI50 (DLD-1) was > 100 µM (inactive) and the GI50 (TK-10) was > 100 µM (inactive). The GI50 (HOP-62) was > 100 µM (inactive), the GI50 (UO-31) was > 100 µM (inactive) and the GI50 (MOLT-4) was > 100 µM (inactive). For the same compound, the GI50 (SK-MEL-2) was > 100 µM (inactive), the GI50 (LXFL 529) was > 100 µM (inactive) and the GI50 (KM-20L2) was > 100 µM (inactive). For the same compound, the GI50 (NCI-H522) was > 100 µM (inactive), the GI50 (HT-29) was > 100 µM (inactive) and the GI50 (SF-295) was > 100 µM (inactive). For the same compound, the GI50 (A549) was > 100 µM (inactive), the GI50 (SNB-19) was > 100 µM (inactive) and the GI50 (U-251) was > 100 µM (inactive). For the same compound, the GI50 (OVCAR-8) was > 100 µM (inactive), the GI50 (HL-60) was > 100 µM (inactive) and the GI50 (K562) was > 100 µM (inactive). The GI50 (DMS-114) was > 100 µM (inactive), the GI50 (HCT-15) was over 100 µM and the GI50 (NCI-H23) was > 100 µM (inactive). For the same compound, the GI50 (OVCAR-3) was > 100 µM (inactive), the GI50 (KM12) was > 100 µM (inactive) and the GI50 (SF-539) was > 100 µM (inactive).

With `COC(=O)C12CCC(CC1=O)C2(C)C` (configuration not stated) the GI50 (EKVX) was > 100 µM (inactive), the GI50 (LOX IMVI) was > 100 µM (inactive) and the GI50 (RPMI-8226) was > 100 µM (inactive). For the same compound, the GI50 (DMS-273) was > 100 µM (inactive), the GI50 (UACC-257) was > 100 µM (inactive) and the GI50 (OVCAR-4) was > 100 µM (inactive). For the same compound, the GI50 (SNB-75) was 40.2 µM (inactive), the GI50 (A498) was > 100 µM (inactive) and the GI50 (IGROV-1) was > 100 µM (inactive). For the same compound, the GI50 (NCI-H226) was > 100 µM (inactive), the GI50 (ACHN) was > 100 µM (inactive) and the GI50 (786-0) was > 100 µM (inactive). For the same compound, the GI50 (NCI-H460) was > 100 µM (inactive), the GI50 (HOP-18) was > 100 µM (inactive) and the GI50 (RXF 393) was > 100 µM (inactive). The GI50 (SK-MEL-5) was > 100 µM (inactive), the GI50 (M14) was > 100 µM (inactive) and the GI50 (Malme-3M) was > 100 µM (inactive). The GI50 (HCT-116) was > 100 µM (inactive), the GI50 (COLO 205) was > 100 µM (inactive) and the GI50 (SR) was > 100 µM (inactive). For the same compound, the GI50 (UACC-62) was > 100 µM (inactive), the GI50 (SK-MEL-28) was > 100 µM (inactive) and the GI50 (SW-620) was > 100 µM (inactive). The GI50 (HOP-92) was > 100 µM (inactive), the GI50 (XF498) was > 100 µM (inactive) and the GI50 (SN12C) was > 100 µM (inactive). For the same compound, the GI50 (HCC 2998) was > 100 µM (inactive), the GI50 (DLD-1) was > 100 µM (inactive) and the GI50 (TK-10) was > 100 µM (inactive). For the same compound, the GI50 (HOP-62) was > 100 µM (inactive), the GI50 (UO-31) was > 100 µM (inactive) and the GI50 (MOLT-4) was > 100 µM (inactive). For the same compound, the GI50 (KM-20L2) was > 100 µM (inactive), the GI50 (SK-OV-3) was > 100 µM (inactive) and the GI50 (HT-29) was > 100 µM (inactive). The GI50 (SF-295) was > 100 µM (inactive), the GI50 (A549) was > 100 µM (inactive) and the GI50 (SNB-19) was > 100 µM (inactive). For the same compound, the GI50 (U-251) was > 100 µM (inactive), the GI50 (OVCAR-8) was > 100 µM (inactive) and the GI50 (HL-60) was > 100 µM (inactive). For the same compound, the GI50 (K562) was > 100 µM (inactive), the GI50 (DMS-114) was 99.5 µM (inactive) and the GI50 (HCT-15) was over 100 µM. For the same compound, the GI50 (NCI-H23) was > 100 µM (inactive), the GI50 (OVCAR-3) was > 100 µM (inactive) and the GI50 (SF-539) was > 100 µM (inactive).

For `CN1OC(CO)CC12C1CC3CC(C1)CC2C3` (configuration not stated), the GI50 (LOX IMVI) was > 100 µM (inactive), the GI50 (CCRF-CEM) was > 100 µM (inactive) and the GI50 (RPMI-8226) was > 100 µM (inactive). The GI50 (DMS-273) was > 100 µM (inactive), the GI50 (OVCAR-4) was > 100 µM (inactive) and the GI50 (CAKI-1) was > 100 µM (inactive). For the same compound, the GI50 (SNB-75) was > 100 µM (inactive), the GI50 (OVCAR-5) was > 100 µM (inactive) and the GI50 (A498) was > 100 µM (inactive). For the same compound, the GI50 (IGROV-1) was > 100 µM (inactive), the GI50 (ACHN) was > 100 µM (inactive) and the GI50 (786-0) was > 100 µM (inactive). The GI50 (NCI-H460) was > 100 µM (inactive), the GI50 (HOP-18) was > 100 µM (inactive) and the GI50 (RXF 393) was > 100 µM (inactive). The GI50 (SK-MEL-5) was > 100 µM (inactive), the GI50 (M14) was > 100 µM (inactive) and the GI50 (Malme-3M) was > 100 µM (inactive). The GI50 (HCT-116) was > 100 µM (inactive), the GI50 (COLO 205) was > 100 µM (inactive) and the GI50 (SR) was > 100 µM (inactive). The GI50 (UACC-62) was > 100 µM (inactive), the GI50 (SK-MEL-28) was > 100 µM (inactive) and the GI50 (SW-620) was > 100 µM (inactive). For the same compound, the GI50 (SF-268) was > 100 µM (inactive), the GI50 (HOP-92) was > 100 µM (inactive) and the GI50 (M19-MEL) was > 100 µM (inactive). The GI50 (SN12C) was > 100 µM (inactive), the GI50 (HCC 2998) was > 100 µM (inactive) and the GI50 (DLD-1) was > 100 µM (inactive). For the same compound, the GI50 (TK-10) was > 100 µM (inactive), the GI50 (HOP-62) was > 100 µM (inactive) and the GI50 (UO-31) was > 100 µM (inactive). For the same compound, the GI50 (MOLT-4) was > 100 µM (inactive), the GI50 (SK-MEL-2) was > 100 µM (inactive) and the GI50 (LXFL 529) was > 100 µM (inactive). The GI50 (KM-20L2) was > 100 µM (inactive), the GI50 (SK-OV-3) was > 100 µM (inactive) and the GI50 (NCI-H522) was > 100 µM (inactive). The GI50 (HT-29) was > 100 µM (inactive), the GI50 (SF-295) was > 100 µM (inactive) and the GI50 (A549) was > 100 µM (inactive). The GI50 (SNB-19) was > 100 µM (inactive), the GI50 (U-251) was > 100 µM (inactive) and the GI50 (OVCAR-8) was > 100 µM (inactive). The GI50 (HL-60) was > 100 µM (inactive), the GI50 (K562) was > 100 µM (inactive) and the GI50 (DMS-114) was > 100 µM (inactive). The GI50 (HCT-15) was over 100 µM, the GI50 (NCI-H23) was > 100 µM (inactive) and the GI50 (OVCAR-3) was > 100 µM (inactive). The GI50 (KM12) was > 100 µM (inactive) and the GI50 (SF-539) was > 100 µM (inactive).
